Assay results taken from PubChem BioAssay (NCI).
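Method: 48-hour compound exposure of cells in 96-well plates, five concentrations, linear interpolation of endpoints. The concentration for full growth arrest is given as TGI.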

Key:
Test in all cases: DTP human tumour cell line panel, 48 h
UO-31 renal = test system: UO-31 renal
COLO 205 colon = test system: COLO 205 colon
SK-MEL-28 melanoma = test system: SK-MEL-28 melanoma
NCI-H23 lung = test system: NCI-H23 lung
LOX IMVI melanoma = test system: LOX IMVI melanoma
SF-295 CNS = test system: SF-295 CNS
EKVX NSCLC = test system: EKVX NSCLC
MDA-MB-435 = test system: MDA-MB-435
U251 CNS = test system: U251 CNS
UACC-62 melanoma = test system: UACC-62 melanoma
A498 renal = test system: A498 renal
OVCAR-3 ovarian = test system: OVCAR-3 ovarian
MDA-N = test system: MDA-N
HCT-116 colon = test system: HCT-116 colon
OVCAR-5 ovarian = test system: OVCAR-5 ovarian
HT29 colon = test system: HT29 colon
NCI-H460 lung = test system: NCI-H460 lung
HOP-62 NSCLC = test system: HOP-62 NSCLC
HCT-15 colon = test system: HCT-15 colon
SNB-19 CNS = test system: SNB-19 CNS
CAKI-1 renal = test system: CAKI-1 renal
HS 578T breast = test system: HS 578T breast
OVCAR-4 ovarian = test system: OVCAR-4 ovarian
SK-MEL-5 melanoma = test system: SK-MEL-5 melanoma
A549 NSCLC = test system: A549 NSCLC
NCI-H226 lung = test system: NCI-H226 lung
SF-268 CNS = test system: SF-268 CNS
BT-549 breast = test system: BT-549 breast
MDA-MB-231 breast = test system: MDA-MB-231 breast
MCF7 breast = test system: MCF7 breast
HOP-92 NSCLC = test system: HOP-92 NSCLC
SR leukemia = test system: SR leukemia
KM12 colon = test system: KM12 colon
MOLT-4 leukemia = test system: MOLT-4 leukemia
NCI/ADR-RES ovarian = test system: NCI/ADR-RES ovarian
SNB-75 CNS = test system: SNB-75 CNS
TK-10 renal = test system: TK-10 renal
HCC-2998 colon = test system: HCC-2998 colon
UACC-257 melanoma = test system: UACC-257 melanoma
M14 melanoma = test system: M14 melanoma
HL-60(TB) leukemia = test system: HL-60(TB) leukemia
SW-620 colon = test system: SW-620 colon
T-47D breast = test system: T-47D breast
786-0 renal = test system: 786-0 renal
NCI-H522 lung = test system: NCI-H522 lung
RXF 393 renal = test system: RXF 393 renal
IGROV1 ovarian = test system: IGROV1 ovarian
RPMI-8226 leukemia = test system: RPMI-8226 leukemia
SF-539 CNS = test system: SF-539 CNS
PC-3 prostate = test system: PC-3 prostate
K-562 leukemia = test system: K-562 leukemia
SK-MEL-2 melanoma = test system: SK-MEL-2 melanoma
OVCAR-8 ovarian = test system: OVCAR-8 ovarian
ACHN renal = test system: ACHN renal
DU-145 prostate = test system: DU-145 prostate
SK-OV-3 ovarian = test system: SK-OV-3 ovarian
MALME-3M melanoma = test system: MALME-3M melanoma
SN12C renal = test system: SN12C renal
CCRF-CEM leukemia = test system: CCRF-CEM leukemia
KM20L2 colon = test system: KM20L2 colon
DMS 114 small cell lung = test system: DMS 114 small cell lung
M19-MEL melanoma = test system: M19-MEL melanoma
DMS 273 small cell lung = test system: DMS 273 small cell lung
HOP-18 NSCLC = test system: HOP-18 NSCLC
LXFL 529 NSCLC = test system: LXFL 529 NSCLC
SNB-78 CNS = test system: SNB-78 CNS
DLD-1 colon = test system: DLD-1 colon
XF 498 CNS = test system: XF 498 CNS

Measured: TGI

CCOC(=O)CCc1cc(=O)oc2cc(O)cc(O)c12
not listed: KM20L2 colon | DMS 114 small cell lung | M19-MEL melanoma | DMS 273 small cell lung | HOP-18 NSCLC | LXFL 529 NSCLC | SNB-78 CNS | DLD-1 colon | XF 498 CNS
> 100 µM: all other assays above

N#CC(C(=N/O)/C(=N/O)C(C#N)c1ccc(Cl)cc1)c1ccc(Cl)cc1 (stereo not given)
98.7 µM: RXF 393 renal
not listed: MDA-MB-435 | MDA-N | HS 578T breast | SK-MEL-5 melanoma | BT-549 breast | MDA-MB-231 breast | MCF7 breast | SR leukemia | MOLT-4 leukemia | NCI/ADR-RES ovarian | HL-60(TB) leukemia | T-47D breast | NCI-H522 lung | PC-3 prostate | K-562 leukemia | DU-145 prostate | CCRF-CEM leukemia
> 100 µM: all other assays above
